From US9777000B2, “Pyrazole derivative” (MOCHIDA PHARMACEUTICAL CO., LTD., priority 2013, dated 2017)

molecular target: human PDE10 (Homo sapiens (Human), UniProt Q9Y233); test: Evaluation of enzyme inhibitory activity: human PDE10 inhibitory effect (IMAP TR-FRET); assay type: biochemical; conditions: cAMP substrate
Procedure, shortened: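 IMAP TR-FRET assay: PDE10 (diluted to 2 ng/mL) was preincubated 5 min with compound in Tris pH 7.2, 10 mM MgCl2, 0.1% BSA, then reacted 60 min at room temperature with cAMP (diluted to 400 nM). 5′-AMP was read as 520/490 nm TR-FRET (ex 340 nm) after ≥3 h binding; IC50 was referenced to solvent (0%) and no-enzyme (100%) wells.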

Chain of human PDE10 (Q9Y233 whole entry): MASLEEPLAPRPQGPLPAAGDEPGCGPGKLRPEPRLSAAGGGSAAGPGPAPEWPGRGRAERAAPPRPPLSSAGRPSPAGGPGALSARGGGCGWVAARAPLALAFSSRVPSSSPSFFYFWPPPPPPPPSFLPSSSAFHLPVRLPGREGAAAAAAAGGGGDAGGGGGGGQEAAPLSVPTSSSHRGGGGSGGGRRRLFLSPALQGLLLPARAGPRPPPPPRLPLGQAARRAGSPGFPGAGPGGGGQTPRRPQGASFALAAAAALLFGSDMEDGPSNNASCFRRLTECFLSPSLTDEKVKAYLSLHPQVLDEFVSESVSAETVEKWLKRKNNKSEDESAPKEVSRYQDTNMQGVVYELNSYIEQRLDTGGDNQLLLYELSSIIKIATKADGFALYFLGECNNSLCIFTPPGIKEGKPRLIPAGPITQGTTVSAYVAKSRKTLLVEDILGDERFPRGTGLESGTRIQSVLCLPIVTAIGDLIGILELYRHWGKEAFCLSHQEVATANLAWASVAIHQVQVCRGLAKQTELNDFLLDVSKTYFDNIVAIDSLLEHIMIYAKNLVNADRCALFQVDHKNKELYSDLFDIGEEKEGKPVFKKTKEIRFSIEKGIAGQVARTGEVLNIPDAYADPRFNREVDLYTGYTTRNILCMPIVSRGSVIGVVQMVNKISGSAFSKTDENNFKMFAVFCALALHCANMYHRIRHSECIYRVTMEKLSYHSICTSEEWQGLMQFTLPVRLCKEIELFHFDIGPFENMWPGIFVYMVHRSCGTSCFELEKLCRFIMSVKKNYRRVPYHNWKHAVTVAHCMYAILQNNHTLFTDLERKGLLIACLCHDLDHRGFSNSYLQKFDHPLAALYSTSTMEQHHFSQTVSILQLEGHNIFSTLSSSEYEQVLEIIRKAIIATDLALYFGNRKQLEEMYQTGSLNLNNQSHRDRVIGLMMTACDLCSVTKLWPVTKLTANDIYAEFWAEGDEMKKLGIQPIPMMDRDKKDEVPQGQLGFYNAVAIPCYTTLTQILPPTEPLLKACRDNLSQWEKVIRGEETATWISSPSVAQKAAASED

Row | IC50 | Compound
1 | < 5 nM | Cc1cccc(-c2cnn(C)c2C(=O)Nc2ccn3nc(N4CCC[C@@H]4C)nc3c2)n1 [Example 4.7, (S)-1-methyl-4-(6-methylpyridin-2-yl)-N-(2-(2-methylpyrrolidin-1-yl)-[1,2,4]triazolo[1,5-a]pyridin-7-yl)-1H-pyrazole-5-carboxamide]
2 | < 5 nM | Cn1ncc(-c2nc(C(F)F)cs2)c1C(=O)Nc1ccn2cc(-c3ccccc3)nc2c1 [Example 1.3, 4-(4-(difluoromethyl)thiazol-2-yl)-1-methyl-N-(2-phenylimidazo[1,2-a]pyridin-7-yl)-1H-pyrazole-5-carboxamide]
3 | < 5 nM | Cc1ncc(C)c(-c2cnn(C)c2C(=O)Nc2cc3nc(-c4cccnc4)nn3cc2F)n1 [Example 3.49, 4-(2,5-dimethylpyrimidin-4-yl)-N-(6-fluoro-2-(pyridin-3-yl)-[1,2,4]triazolo[1,5-a]pyridin-7-yl)-1-methyl-1H-pyrazole-5-carboxamide]
4 | < 5 nM | Cn1ncc(-c2nc(C(F)F)cs2)c1C(=O)Nc1ccn2nc(N3CC[C@@H](F)C3)nc2c1 [Example 4.12, (R)-4-(4-(difluoromethyl)thiazol-2-yl)-N-(2-(3-fluoropyrrolidin-1-yl)-[1,2,4]triazolo[1,5-a]pyridin-7-yl)-1-methyl-1H-pyrazole-5-carboxamide]
